Where two headings read alike, the source gives them in different places.
Tests used:
Experiment in all cases: cell-based
Conditions in all cases: tsA201, read-out: % inhibition @ 30 µM
[1] = biological target: T1, ASIC1 (hASIC1; ASIC1a as primary isoform in tsA-201 cells) (Homo sapiens, UniProt P78348)
T1 sequence (P78348 1-528): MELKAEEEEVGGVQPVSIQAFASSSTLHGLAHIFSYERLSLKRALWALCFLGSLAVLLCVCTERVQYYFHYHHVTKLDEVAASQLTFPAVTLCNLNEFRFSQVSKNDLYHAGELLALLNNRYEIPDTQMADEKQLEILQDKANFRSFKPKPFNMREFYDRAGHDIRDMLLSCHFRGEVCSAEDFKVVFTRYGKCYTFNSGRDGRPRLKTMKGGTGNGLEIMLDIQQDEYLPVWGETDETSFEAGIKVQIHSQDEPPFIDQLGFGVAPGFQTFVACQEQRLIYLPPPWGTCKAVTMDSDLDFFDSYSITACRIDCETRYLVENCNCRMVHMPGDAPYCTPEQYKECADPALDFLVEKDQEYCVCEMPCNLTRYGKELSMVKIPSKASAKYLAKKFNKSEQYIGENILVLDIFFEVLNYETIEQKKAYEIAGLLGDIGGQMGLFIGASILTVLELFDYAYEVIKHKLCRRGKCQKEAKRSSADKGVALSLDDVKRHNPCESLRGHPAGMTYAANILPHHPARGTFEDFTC

[2] = biological target: T1, ASIC1 (hASIC1; ASIC1a as primary isoform in tsA-201 cells); remark: listed apart in the source
[3] = biological target: T1, ASIC1 (hASIC1; ASIC1a as primary isoform in tsA-201 cells); remark: listed apart in the source
[4] = biological target: T1, ASIC1 (hASIC1; ASIC1a as primary isoform in tsA-201 cells); remark: listed apart in the source

| Compound | inhibition at 30 µM [2] [%] | further results |
| --- | --- | --- |
| N=C(NC(=O)c1nc(Cl)c(N)nc1N)Nc1ccccc1 [compound 96, 96] |  | inhibition at 30 µM [1]: 94% |
| N=C(N)NC(=O)c1nc(I)c(N)nc1N [compound 97] |  | inhibition at 30 µM [1]: 95% |
| N=C(N)NC(=O)c1ccccc1 [compound 92, 92] |  | inhibition at 30 µM [1]: 22% |
| N=C(N)NC(=O)c1nc(-c2ccc(C(F)(F)F)cc2)c(N2CCCC2)nc1N [compound 78, 78] |  | inhibition at 30 µM [3]: 78% |
| COC(=O)c1nc(-c2cc3ccccc3o2)c(N2CCCCCC2)nc1N [compound 67, 67] |  | inhibition at 30 µM [4]: 9% |
| N#CCCNc1nc(N)c(C(=O)NC(=N)N)nc1Cl [compound 89] |  | inhibition at 30 µM [1]: 80% |
| Cc1ccc2oc(-c3nc(C(=O)NC(=N)N)c(N)nc3N)cc2c1 [compound 20, 20] | 65 |  |
| N=C(N)NC(=O)c1nc(-c2cc3cc(Cl)ccc3o2)c(N)nc1N [compound 25, 25] | 69 |  |
| N=C(N)NC(=O)c1nc(-c2ccc(C(F)(F)F)cc2)c(N)nc1N [compound 48, 48] | 44 |  |
| CN(C)C(=O)c1nc(-c2cc3ccccc3o2)c(N2CCCCCC2)nc1N [compound 69, 69] |  | inhibition at 30 µM [4]: 10% |
| N=C(N)NC(=O)c1nc(-c2cnc(NCCO)nc2)c(N2CCCCCC2)nc1N [compound 76, 76] |  | inhibition at 30 µM [4]: 6% |
| N=C(N)NC(=O)c1nc(-c2cc3cnccc3o2)c(N)nc1N [compound 39, 39] | 36 |  |
| COc1ccc2oc(-c3nc(C(=O)NC(=N)N)c(N)nc3N3CCCCCC3)cc2c1 [compound 30, 30] | 35 |  |
| Nc1noc(-c2nc(-c3cc4ccccc4o3)c(N3CCCCCC3)nc2N)n1 [compound 71, 71] |  | inhibition at 30 µM [4]: 8% |
| N=C(N)NC(=O)c1nc(-c2cc3cc(Br)ccc3o2)c(N)nc1N [compound 27, 27] | 45 |  |
| N=C(N)NC(=O)c1nc(-c2ccc3occc3c2)c(N)nc1N [compound 43, 43] | 59 |  |
| N#Cc1ccc2oc(-c3nc(C(=O)NC(=N)N)c(N)nc3N)cc2c1 [compound 31, 31] | 30 |  |
| CC(C)Nc1ncc(-c2nc(C(=O)NC(=N)N)c(N)nc2N2CCCCCC2)cn1 [compound 75, 75] |  | inhibition at 30 µM [4]: 11% |
| N#Cc1ccc2oc(-c3nc(C(=O)NC(=N)N)c(N)nc3N3CCCCCC3)cc2c1 [compound 32, 32] | 64 |  |
| N=C(N)NC(=O)c1nc(Cl)c(N2CCCOCC2)nc1N [compound 83, 83] |  | inhibition at 30 µM [3]: 67% |
| COc1ncc(-c2nc(C(=O)NC(=N)N)c(N)nc2N)cn1 [compound 46] | 34 |  |
| N=C(N)NC(=O)c1nc(-c2cnc(N)nc2)c(N2CCCCCC2)nc1N [compound 73, 73] |  | inhibition at 30 µM [4]: 6% |

| Compound | inhibition at 30 µM [2] [%] | further results |
| --- | --- | --- |
| CC(C)(C)c1ccc2oc(-c3nc(C(=O)NC(=N)N)c(N)nc3N3CCCCCC3)cc2c1 [compound 22, 22] | 44 |  |
| Nc1nc(N2CCCCCC2)c(-c2cc3ccccc3o2)nc1C(=O)O [compound 68, 68] |  | inhibition at 30 µM [4]: 6% |
| COc1ccc2cc(-c3nc(C(=O)NC(=N)N)c(N)nc3N)oc2c1 [compound 33, 33] | 68 |  |
| Cc1ccc(S(=O)(=O)NCCNc2nc(N)c(C(=O)NC(=N)N)nc2Cl)cc1 [compound 91] |  | inhibition at 30 µM [1]: 79% |
| N=C(N)NC(=O)c1nc(Cl)c(N2CCOCC2)nc1N [compound 80, 80] |  | inhibition at 30 µM [3]: 75% |
| CNc1ncc(-c2nc(C(=O)NC(=N)N)c(N)nc2N2CCCCCC2)cn1 [compound 74, 74] |  | inhibition at 30 µM [4]: 27% |
| Nc1nnc(-c2nc(-c3cc4ccccc4o3)c(N3CCCCCC3)nc2N)[nH]1 [compound 70, 70] |  | inhibition at 30 µM [4]: 15% |
| N=C(N)NC(=O)c1nc(-c2ccc(C(F)(F)F)cc2)c(C2CC2)nc1N [compound 79, 79] |  | inhibition at 30 µM [3]: 65% |
| N=C(N)NC(=O)c1nc(-c2cc3ccccc3s2)c(N)nc1N [compound 18, 18] | 45 |  |
| N=C(N)NC(=O)c1nc(Cl)c(NCc2ccccc2)nc1N [compound 87] |  | inhibition at 30 µM [1]: 90% |
| N=C(N)NC(=O)c1ccccn1 [compound 93, 93] |  | inhibition at 30 µM [1]: 22% |
| COc1ncc(-c2nc(C(=O)NC(=N)N)c(N)nc2N2CCCOCC2)cn1 [compound 85, 85] |  | inhibition at 30 µM [3]: 8% |
| CN(C)CCC(=O)c1nc(-c2cc3ccccc3o2)c(N2CCCCCC2)nc1N [compound 72, 72] |  | inhibition at 30 µM [4]: 31% |
| N=C(N)NC(=O)c1nc(Cl)c(N)nc1N [compound 11, amiloride] | 88 |  |
| N=C(N)NC(=O)c1nc(-c2ccc3c(c2)CCO3)c(N)nc1N [compound 41, 41] | 22 |  |
| N=C(N)NC(=O)c1nc(-c2cc3ncccc3o2)c(N)nc1N [compound 37, 37] | 17 |  |
| CC(C)c1ccc(C(=O)NC(=N)N)cc1S(C)(=O)=O [compound 95, 95] |  | inhibition at 30 µM [1]: 37% |
| N=C(N)NC(=O)c1nc(-c2cncnc2)c(N2CCCOCC2)nc1N [compound 84, 84] |  | inhibition at 30 µM [3]: 14% |
| N=C(N)NC(=O)c1nc(Cl)c(NCCP(=O)(O)O)nc1N [compound 90, 90] |  | inhibition at 30 µM [1]: 81% |
| N=C(N)NC(=O)c1nc(Cl)c(NCCc2ccccc2)nc1N [compound 88] |  | inhibition at 30 µM [1]: 91% |
| N=C(N)NC(=O)c1nc(-c2cc3ccccc3o2)c(N2CCCOCC2)nc1N [compound 86, 86] |  | inhibition at 30 µM [3]: 26% |

More lines, main results first:

| inhibition at 30 µM [2] [%] | Compound | further results |
| --- | --- | --- |
| 64 | N=C(N)NC(=O)c1nc(-c2cc3ccccc3o2)c(N2CCCCCC2)nc1N [compound 17] |  |
| 69 | N=C(N)NC(=O)c1nc(-c2cc3cc(F)cc(F)c3o2)c(N2CCCCCC2)nc1N [compound 36, 36] |  |
| 21 | N=C(N)NC(=O)c1nc(-c2cc3cnccc3o2)c(N2CCCCCC2)nc1N [compound 40, 40] |  |
| 25 | N=C(N)NC(=O)c1nc(-c2cncnc2)c(N2CCCCCC2)nc1N [compound 45, 45] |  |
| 67 | N=C(N)NC(=O)c1nc(-c2cc3ccccc3s2)c(N2CCCCCC2)nc1N [compound 19, 19] |  |
| 58 | N=C(N)NC(=O)c1nc(-c2cc3cc(F)ccc3o2)c(N2CCCCCC2)nc1N [compound 24, 24] |  |
| 23 | N=C(N)NC(=O)c1nc(-c2ccc3occc3c2)c(N2CCCCCC2)nc1N [compound 44, 44] |  |
| 46 | N=C(N)NC(=O)c1nc(-c2ccco2)c(N2CCCCCC2)nc1N [compound 15, 15] |  |
| 49 | N=C(N)NC(=O)c1nc(-c2ccc3c(c2)CCO3)c(N2CCCCCC2)nc1N [compound 42, 42] |  |
| 59 | N=C(N)NC(=O)c1nc(-c2cc3cc(Br)ccc3o2)c(N2CCCCCC2)nc1N [compound 28, 28] |  |
| 53 | Cn1cc(-c2nc(C(=O)NC(=N)N)c(N)nc2N2CCCCCC2)cn1 [compound 50, 50] |  |
| 35 | N=C(N)NC(=O)c1nc(-c2cc3cc(Cl)ccc3o2)c(N2CCCCCC2)nc1N [compound 26, 26] |  |
| 67 | N=C(N)NC(=O)c1nc(-c2ccc(C(F)(F)F)cc2)c(N2CCCCCC2)nc1N [compound 49, 49] |  |
| 33 | COc1ncc(-c2nc(C(=O)NC(=N)N)c(N)nc2N2CCCCCC2)cn1 [compound 47] |  |
| 20 | N=C(N)NC(=O)c1nc(-c2cc3ncccc3o2)c(N2CCCCCC2)nc1N [compound 38, 38] |  |
| 79 | N=C(N)NC(=O)c1nc(Cl)c(N2CCCCCC2)nc1N [compound 13, HMA] |  |

Source: paper doi:10.1101/2022.03.12.484055v1 (biorxiv, 2022)
